{"source": "patent US12180162B1", "about": "“2-amino-4-(4-bromophenyl)-6-methoxypyridine-3,5-dicarbonitrile as an antibacterial compound” (KING FAISAL UNIVERSITY, priority 2023, dated 2024)", "assay_in_all_cases": "Antibacterial screening, agar disc-diffusion method", "format_in_all_cases": "cell-based", "key": {"Staphylococcus aureus": {"system": "Staphylococcus aureus", "settings": "Gram positive, 6 mm disc, 10 μL of 10 mg/mL in DMSO, DMSO zone subtracted", "procedure": "(§1) The antibacterial properties of the synthesized compound 2-amino-4-(4-bromophenyl)-6-methoxypyridine-3,5-dicarbonitrile were studied by the method of agar disc-diffusion method. Sterilized filter papers (6 mm in diameter) were wetted with 10 μL of a solution of 2-amino-4-(4-bromophenyl)-6-methoxypyridine-3,5-dicarbonitrile (3) to be tested, containing 10 mg/mL in DMSO, and the discs were allowed to air dry. The discs were then placed onto the surface of agar plates (nutrient agar for bacteria) seeded with the test organism. Each plate contained 15 mL of the agar medium, previously seeded with 0.2 mL of the broth culture of each organism pregrown for 18 hours. The inhibition zones was measured in mm. Discs impregnated with DMSO were used as a control, and its inhibition zone was subtracted from the tested compound actual inhibition zone. […] Their antibacterial screened against gram positive bacteria namely Bacillus cereus and Staphylococcus aureus and gram-negative bacterial strains namely Pseudomonas aeruginosa and Escherichia coli."}, "Escherichia coli": {"system": "Escherichia coli", "settings": "Gram negative, 6 mm disc, 10 μL of 10 mg/mL in DMSO, DMSO zone subtracted", "procedure": "as §1"}, "Pseudomonas aeruginosa": {"system": "Pseudomonas aeruginosa", "settings": "Gram negative, 6 mm disc, 10 μL of 10 mg/mL in DMSO, DMSO zone subtracted", "procedure": "as §1"}, "Bacillus Cereus": {"system": "Bacillus Cereus", "settings": "Gram positive, 6 mm disc, 10 μL of 10 mg/mL in DMSO, DMSO zone subtracted", "procedure": "as §1"}}, "note": "Like-named read-outs stand apart in the source and are kept apart here.", "data": [{"smiles": "COc1nc(N)c(C#N)c(-c2ccc(Br)cc2)c1C#N", "note": "[Compound 3, 2-amino-4-(4-bromophenyl)-6-methoxypyridine-3,5-dicarbonitrile]", "values": [{"measurement": "zone of inhibition at 10000 µg/mL", "setting": "Staphylococcus aureus; sub-column A (not defined), read-out: inhibition zone, Staphylococcus aureus, A", "value": 18, "unit": "mm"}, {"measurement": "zone of inhibition at 10000 µg/mL", "setting": "Staphylococcus aureus; sub-column B (not defined), read-out: inhibition zone, Staphylococcus aureus, B", "value": 27, "unit": "mm"}, {"measurement": "zone of inhibition at 10000 µg/mL", "setting": "Staphylococcus aureus; sub-column C (not defined), read-out: inhibition zone, Staphylococcus aureus, C", "value": 33, "unit": "mm"}, {"measurement": "zone of inhibition at 10000 µg/mL", "setting": "Escherichia coli; sub-column A (not defined), read-out: inhibition zone, Escherichia coli, A", "value": 39, "unit": "mm"}, {"measurement": "zone of inhibition at 10000 µg/mL", "setting": "Escherichia coli; sub-column B (not defined), read-out: inhibition zone, Escherichia coli, B", "value": 41, "unit": "mm"}, {"measurement": "zone of inhibition at 10000 µg/mL", "setting": "Escherichia coli; sub-column C (not defined), read-out: inhibition zone, Escherichia coli, C", "value": 46, "unit": "mm"}, {"measurement": "zone of inhibition at 10000 µg/mL", "setting": "Pseudomonas aeruginosa; sub-column A (not defined), read-out: inhibition zone, Pseudomonas aeruginosa, A", "value": 24, "unit": "mm"}, {"measurement": "zone of inhibition at 10000 µg/mL", "setting": "Pseudomonas aeruginosa; sub-column B (not defined), read-out: inhibition zone, Pseudomonas aeruginosa, B", "value": 34, "unit": "mm"}, {"measurement": "zone of inhibition at 10000 µg/mL", "setting": "Pseudomonas aeruginosa; sub-column C (not defined), read-out: inhibition zone, Pseudomonas aeruginosa, C", "value": 39, "unit": "mm"}, {"measurement": "zone of inhibition at 10000 µg/mL", "setting": "Bacillus Cereus; sub-column A (not defined), read-out: inhibition zone, Bacillus Cereus, A", "value": 32, "unit": "mm"}, {"measurement": "zone of inhibition at 10000 µg/mL", "setting": "Bacillus Cereus; sub-column B (not defined), read-out: inhibition zone, Bacillus Cereus, B", "value": 37, "unit": "mm"}, {"measurement": "zone of inhibition at 10000 µg/mL", "setting": "Bacillus Cereus; sub-column C (not defined), read-out: inhibition zone, Bacillus Cereus, C", "value": 40, "unit": "mm"}]}]}
